According to paper PMC10204490, “Incubation Time Influences Organic Anion Transporter 1 Kinetics and Renal Clearance Predictions” (Journal of Xenobiotics, 2023):

Experiments:
[1] = cited from earlier work
[2] = design: method as in earlier work; details: cited from earlier work
[3] = design: method as in earlier work; details: measured; cited from earlier work
OAT1 [4] = details: cited from earlier work
OAT1 [5] = target: T1, OAT1 (Homo sapiens, UniProt Q4U2R8); experiment: Inhibition of [3H]PAH uptake into CHO-OAT1 cells (IC50 determination); details: IC50 for inhibition of [3H]PAH uptake, [3H]PAH 20 nM, mean ± SEM, n=4
T1 sequence (Q4U2R8 1-563): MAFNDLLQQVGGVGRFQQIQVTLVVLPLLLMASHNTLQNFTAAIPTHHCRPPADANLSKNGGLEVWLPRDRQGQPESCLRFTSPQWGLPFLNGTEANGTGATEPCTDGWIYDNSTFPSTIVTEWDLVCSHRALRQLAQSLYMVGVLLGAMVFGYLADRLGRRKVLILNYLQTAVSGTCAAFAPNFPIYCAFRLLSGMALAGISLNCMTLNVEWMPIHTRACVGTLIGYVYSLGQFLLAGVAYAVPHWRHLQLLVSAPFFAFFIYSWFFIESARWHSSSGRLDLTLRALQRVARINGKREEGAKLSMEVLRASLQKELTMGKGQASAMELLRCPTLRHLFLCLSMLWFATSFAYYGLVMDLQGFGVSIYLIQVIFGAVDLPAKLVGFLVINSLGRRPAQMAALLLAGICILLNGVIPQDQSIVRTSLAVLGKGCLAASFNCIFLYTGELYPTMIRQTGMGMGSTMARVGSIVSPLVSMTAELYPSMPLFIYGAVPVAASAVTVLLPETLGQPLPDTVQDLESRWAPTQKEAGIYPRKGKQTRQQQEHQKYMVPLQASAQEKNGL
Method: All cells were grown to confluence in 24-well flat bottom plates for transport experiments.
Transport experiments involved aspirating the media, rinsing the cells quickly once with WB (0.4 mL), and then adding the transport solution (0.4 mL) to the wells for an amount of time as indicated in the figure legends. Uptake was stopped by aspirating the transport buffer and rinsing the wells three times with ice-cold WB (0.4 mL). The cells were lysed in 0.5 N NaOH/1% sodium dodecyl sulfate (0.4 mL) for 30 min on an orbital shaker and the lysates neutralized with 1 N HCl (0.2 mL). […] Several wells not used for transport were used for determining the number of cells per well with a hemocytometer.
As above, transport inhibition experiments involved aspirating the media, rinsing the cells quickly once with WB (0.4 mL), and then adding the transport solution (0.4 mL) to the wells for an amount of time as indicated in the figure legends.
[I] is the concentration of inhibitor in the transport solution. […] Japp is the apparent maximal transport rate, and C has the same meaning as noted above.

OAT1 [6] = target: T1, OAT1; experiment: Telmisartan pre-incubation and washout recovery of [3H]PAH uptake in CHO-OAT1 cells

Nc1ccc(C(=O)NCC(=O)O)cc1 [PAH, Para-aminohippurate]
Clinically-observed plasma clearance (CLi.v.) ([1]; 10 mg ∙ kg-1 intravenous dose): 40.6 L/h
Observed Vss [1]: 0.23 L/kg
Percentage of the dose excreted into the urine as acetyl-PAH [1]: ~ 10%
Reduction in plasma clearance of PAH by co-administered probenecid ([1]; human subjects, probenecid 1 g oral dose): 1.8 fold
LogP [2]: -2.2
pKa [2]: 3.83
Fraction unbound in plasma (fup) [3]: 0.83

CCCc1nc2c(C)cc(-c3nc4ccccc4n3C)cc2n1Cc1ccc(-c2ccccc2C(=O)O)cc1 [Telmisartan, telmisartan]
Inhibition mechanism at OAT1 (OAT1 [4]): non-competitive
IC50 (OAT1 [5]; 15 sec incubation): 0.4 ± 0.07 µM
IC50 (OAT1 [5]; 10 min incubation): 0.06 ± 0.02 µM
Reversibility of OAT1 inhibition after washout (OAT1 [6]; 30 min pre-treatment with telmisartan 0.5 µM, washout in WB with 10% FBS, single experiment): reversible, albeit slowly
Effect of pre-incubation time on OAT1 transport activity (OAT1 [6]; telmisartan 10, 50, 100 or 200 nM, pre-incubation 1, 5, 10 or 30 min, [3H]PAH uptake 15 s): decreased with increasing pre-incubation times

COc1ccc2c(c1)c(CC(=O)O)c(C)n2C(=O)c1ccc(Cl)cc1 [Indomethacin, indomethacin]
Inhibition mechanism at OAT1 (OAT1 [4]): competitive

COc1ccc2[nH]c([S+]([O-])Cc3ncc(C)c(OC)c3C)nc2c1 (stereo not shown) [Omeprazole, omeprazole]
Inhibition mechanism at OAT1 (OAT1 [4]): mixed-type
IC50 (OAT1 [5]; 15 sec incubation): 9.7 ± 0.8 µM
IC50 (OAT1 [5]; 10 min incubation): 9.2 ± 0.8 µM
